{
  "source": "patent US11324706B2",
  "about": "“Composition for inhibiting growth of breast cancer stem cells containing phenylacetaldehyde” (JEJU NATIONAL UNIVERSITY INDUSTRY-ACADEMIC COOPERATION …, priority 2016, dated 2022)",
  "key": {"[1]": {"test_system": "MDA-MB-231 cells", "assay": "Annexin V/PI staining analysis (FACS)", "assay_type": "cell-based, human", "conditions": "MDA-MB-231, PAA 0.2 mM, 24 hours", "experimental": "(§1) (FIGS. 1D, E and F) show effects of PAA on apoptosis of breast cancer cells. MDA-MB-231 cells were treated with PAA for 24 hours, and apoptotic cells were analyzed by FACS using an Annexin V-PI staining kit. Caspase 3/7 activity in MDA-MB-231 cells was analyzed using a Caspase-Gloss 3/7 kit. By fluorescent staining, apoptotic cells were analyzed and nuclei thereof were stained with Hoechst 33258 in breast cancers (magnified, 200×) (FIG. 1);\n[…] In accordance with the manufacturer's instructions, the cancer cells were double-stained with PI and FITC-Annexin V. The sample was analyzed by flow cytometry (Accuri C6, BD, San Diego, Calif., USA)."}, "[2]": {"test_system": "MDA-MB-231 cells", "assay": "Analysis of apoptosis by fluorescent staining (Hoechst 33258)", "assay_type": "cell-based, human", "conditions": "MDA-MB-231, Hoechst 33258 staining", "experimental": "as §1\nMDA-MB-231 cells were treated with 200 μm of PAA for 24 hours and were cultured in a Hoechst 33258 solution (10 mg/mL) at 37° C. for 30 minutes."}, "[3]": {"test_system": "MDA-MB-231 cells", "assay": "Clonogenicity assay (colony formation)", "assay_type": "cell-based, human", "conditions": "MDA-MB-231, 7 days", "experimental": "The dissociated 1,000 MDA-MB-231 cells were seeded on a 6-well plate and treated with marked concentrations of PAA and DMSO for 7 days. A representative image of colonies was recorded. Shown data is represented as a mean±SD in three independent tests. * means P<0.05, as compared to DMSO-treated control group;\nMDA-MB-231 cells were seeded at a low density on a 6-well plate and treated with different concentrations of PAA in DMEM. After 24 hours, the medium was replaced with fresh medium and incubated for cell growth for 7 days. Grown colonies were counted."}, "[4]": {"test_system": "Cancer stem cells", "assay": "Formation of CSCs under PAA steam (scent)", "assay_type": "cell-based", "conditions": "PAA steam (1 mM), 7 days", "experimental": "Cancer stem cells were cultured in the presence of PAA steam (1 mM) and vehicle (methanol) for 7 days.\nThen, formation of CSCs was analyzed by emission of PAA scent (FIG. 4C). As a result, PAA inhibited formation of CSCs. Volatile materials, i.e., PAA and phenylethanol, which are the most important for roses and tomatoes were derived from phenylalanine, as shown in FIG. 5A (FIG. 5A). In order to investigate whether or not phenylalanine-derived volatile materials, i.e., PAA and phenylethanol, and structural analogs (2- and 3-phenylpropionaldehydes) can inhibit formation of tumorspheres, these volatile materials were exposed to MCF-7."}, "[5]": {"test_system": "nuclear STAT3 proteins (phosphorylation)", "assay": "Western blotting of mammosphere nuclear proteins, pStat3", "assay_type": "cell-based, human", "conditions": "MCF-7-derived mammospheres, compared to the control group", "experimental": "The proteins isolated from mammospheres of PAA-treated MCF-7 were separated on 10% SDS-PAGE and transferred to a polyvinylidene difluoride membrane (Millipore, Bedford, Mass., USA). The membrane was blocked in 5% skim milk-containing PBS-Tween 20 (0.1%, v/v) for 30 minutes at room temperature. The blot was cultured at 4° C. in a blocking solution containing primary antibodies overnight. The used primary antibodies were as follows: Stat3, p65, Lamin B, and phospho-Stat3 (Cell Signaling, Beverly, Mass., USA). β-actin antibodies (Santa Cruz Biotechnology) were used as a loading control group. After washing with PBS-Tween 20 (0.1%, v/v), the blot was cultured in a horseradish peroxidase-conjugated secondary antibody and subjected to photosensitive treatment with a chemiluminescent detection kit (Santa Cruz Biotechnology).\nIn order to investigate cellular functions of PAA, STAT3 and NF-κB pathways were investigated in MCF-7-derived mammospheres subjected to treatment with PAA. As compared to the control group, PAA reduced phosphorylation of nuclear STAT3 proteins."}, "[6]": {"test_system": "MCF-7 cells", "assay": "Cell proliferation (MTS) analysis, MCF-7", "assay_type": "cell-based, human", "conditions": "MCF-7, 48 hours after PAA treatment", "experimental": "(FIGS. 1A, B and C) show chemical structures of PAA and viability of MCF-7 and MDA-MB-231 cells depending on PAA. MCF-7 and MDA-MB-231 cells were treated with increasing concentrations of PAA for 48 hours. Anti-proliferation effects of PAA were measured by MTS analysis.\nProliferation rates of MCF-7 and MDA-MB-231 cells were measured using a CellTiter 96® aqueous one solution cell proliferation kit. MCF-7 and MDA-MB-231 cells were cultured in the presence of PAA (0.1, 0.2, 0.5, 1 and 2 mM) on a 96-well plate for 48 hours. In accordance with the manufacturer's protocol, absorbance at 490 nm was determined using a 96-well plate reader (Dynex Revelation, Dynex Ltd., Billingshurst, UK). All data was determined by measurement of three sets.\nIn order to investigate anti-proliferation effects of PAA in human breast cancer cell lines, i.e., MCF-7 and MDA-MB-231, the cancer cell lines were treated with different concentrations of PAA and then MTS analysis was conducted."}, "[7]": {"biological_target": "T1, Stat3 / biotin-labelled Stat probe (Homo sapiens, UniProt P40763)", "T1 construct": "EMSA (electrophoretic mobility-shift assay) of PAA-treated MDA-MB-231 cell-derived mammosphere nuclear lysates; endogenous in cells; host or cells: MDA-MB-231 cell-derived mammospheres (nuclear lysate)", "T1 sequence (P40763 2-770 limits assumed)": "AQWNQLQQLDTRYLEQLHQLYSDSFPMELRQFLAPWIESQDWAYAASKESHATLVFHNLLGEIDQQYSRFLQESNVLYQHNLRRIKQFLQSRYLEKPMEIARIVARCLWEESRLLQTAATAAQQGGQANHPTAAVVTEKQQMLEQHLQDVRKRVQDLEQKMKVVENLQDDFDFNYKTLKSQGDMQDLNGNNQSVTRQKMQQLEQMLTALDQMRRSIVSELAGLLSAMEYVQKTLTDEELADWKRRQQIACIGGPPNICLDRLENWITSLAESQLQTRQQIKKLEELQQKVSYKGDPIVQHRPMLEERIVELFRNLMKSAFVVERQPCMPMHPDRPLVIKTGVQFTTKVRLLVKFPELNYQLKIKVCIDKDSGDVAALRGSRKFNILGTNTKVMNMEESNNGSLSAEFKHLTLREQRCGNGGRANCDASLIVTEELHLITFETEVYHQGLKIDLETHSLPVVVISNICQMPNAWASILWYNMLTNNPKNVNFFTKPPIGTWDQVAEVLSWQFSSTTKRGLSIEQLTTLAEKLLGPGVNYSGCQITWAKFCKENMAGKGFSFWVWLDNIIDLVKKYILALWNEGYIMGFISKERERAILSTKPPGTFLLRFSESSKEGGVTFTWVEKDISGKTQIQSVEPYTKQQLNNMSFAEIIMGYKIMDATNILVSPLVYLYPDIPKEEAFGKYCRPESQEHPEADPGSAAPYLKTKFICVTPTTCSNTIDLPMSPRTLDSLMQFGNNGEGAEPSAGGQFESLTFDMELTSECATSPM", "assay": "Electrophoretic mobility shift assay (EMSA) with Stat3 probe", "assay_type": "cell-based", "conditions": "PAA-treated mammosphere nuclear extracts", "experimental": "Nuclear lysates were cultured in biotin-labeled Stat3 probes and were isolated by 6% PAGE;\nLane 1: probe alone; Lane 2: probe+nuclear extracts; Lane 3: probe+PAA-treated nuclear extracts; Lane 4: self-competition; Lane 5: nuclear extracts cultured together with mutant STAT3 probe. The PAA reduced DNA/STAT3 interactions in mammosphere nuclear lysates;\nIn accordance with the manufacturer's instructions, EMSAs were detected using a chemiluminescent EMSA kit (Thermoscientific, IL, USA) commercially available from Lightshift. Biotin-top and bottom probe parts (5′-[…]-Biotin3′, SEQ NO. 11 and 5′-[…]-Biotin3′, SEQ NO. 12) of Stat3 probe were annealed and the double-stranded oligonucleotide was end-labelled with biotin.\nBiotin-labelled DNA probes were cultured together with PAA-treated nuclear proteins in a total volume of 20 μl of EMSA buffer containing 1 μg/μl poly[dI-dC]) for 20 minutes at room temperature. The reaction mixture was subjected to electrophoresis on 4% polyacrylamide nondenaturing gel at 4° C. in the presence of 0.5×TBE (45 mM Tris borate and 1 mM EDTA) and visualized using a chemiluminescence nucleic acid detection kit (Thermoscientific, IL, USA).\nIn addition, bonding between PAA-treated nuclear extracts and Stat3 DNAs was analyzed using a biotin-labelled Stat-conjugated probe that bonds to STAT3 at a high affinity. […]"}},
  "data": [
    {"molecule": "O=CCc1ccccc1", "note": "[PAA, phenylacetaldehyde]", "values": [
      {"measurement": "number of breast cancer cells (Annexin V+) killed", "setting": "[1]", "value": "increased"},
      {"measurement": "formation of apoptotic bodies", "setting": "[2]", "value": "apoptotic bodies were formed"},
      {"measurement": "formation of colonies", "setting": "[3]", "value": "concentration-dependently inhibited"},
      {"measurement": "formation of CSCs by emission of PAA scent", "setting": "[4]", "value": "inhibited"},
      {"measurement": "phosphorylation of nuclear STAT3 proteins", "setting": "[5]", "value": "reduced"},
      {"measurement": "PAA concentration at which growth of the cell line was concentration-dependently inhibited", "setting": "[6]", "value": "≥ 200", "unit": "μm"},
      {"measurement": "bonding between biotin-labelled Stat probe and Stat3", "setting": "[7]", "value": "inhibited"}
    ]}
  ]
}
